# Experimental data: ChEMBL document CHEMBL1201861, “Genomics of Drug Sensitity in Cancer screening data, Wellcome Trust Sanger Institute”
# Where “and” joins values, the source holds several entries; their conditions need not be identical. Identical values can stand only once. Where a SMILES comes first, the peptide text is derived from it. The star is where a group is joined. Cbz = O=C(OCc1ccccc1)*
# Experiments:
# [1] = system: SCLC-21H; assay: cells; assay type: functional, cell-based, Homo sapiens;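 also: growth inhibition of cultured human SCLC-21H cells, read out with a cell viability assay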
# Description: SANGER: Inhibition of human SCLC-21H cell growth in a cell viability assay.
# [2] = system: D-336MG; assay: cells; assay type: functional, cell-based, Homo sapiens
# Description: SANGER: Inhibition of human D-336MG cell growth in a cell viability assay.
# [3] = system: BC1 cell line; assay: SANGER: Inhibition of human BC-1 cell growth in a cell viability assay.; assay type: functional, cell-based
# [4] = system: SR; assay: cells; assay type: functional, cell-based, Homo sapiens
# Description: SANGER: Inhibition of human SR cell growth in a cell viability assay.
# [5] = system: NCI-H2171; assay: cells; assay type: functional, cell-based, Homo sapiens;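 also: growth inhibition of human NCI-H2171 cells, read out by a cell viability assay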
# Description: SANGER: Inhibition of human NCI-H2171 cell growth in a cell viability assay.
# [6] = system: OPM-2; assay: cells; assay type: functional, cell-based, Homo sapiens;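 also: growth of OPM-2 cells measured with a viability assay, IC50 for suppression of proliferation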
# Description: SANGER: Inhibition of human OPM-2 cell growth in a cell viability assay.
# [7] = system: NCI-H1436; assay: cells; assay type: functional, cell-based, Homo sapiens;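 also: growth suppression of human NCI-H1436 cells, determined with a cell viability readout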
# Description: SANGER: Inhibition of human NCI-H1436 cell growth in a cell viability assay.
# [8] = system: EB-3; assay: cells; assay type: functional, cell-based, Homo sapiens;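 also: human EB-3 cells, growth inhibition read out via a cell viability assay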
# Description: SANGER: Inhibition of human EB-3 cell growth in a cell viability assay.
# [9] = system: LOUCY; assay: cells; assay type: functional, cell-based, Homo sapiens;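 also: growth inhibition of human LOUCY cells, read out with a cell viability assay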
# Description: SANGER: Inhibition of human LOUCY cell growth in a cell viability assay.
# [10] = system: HC-1; assay: cells; assay type: functional, cell-based, Homo sapiens;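 also: growth inhibition of HC-1 cells measured by a cell viability assay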
# Description: SANGER: Inhibition of human HC-1 cell growth in a cell viability assay.
# [11] = system: NCI-H1963; assay: cells; assay type: functional, cell-based, Homo sapiens
# Description: SANGER: Inhibition of human NCI-H1963 cell growth in a cell viability assay.
# [12] = system: K052; assay: cells; assay type: functional, cell-based, Homo sapiens;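 also: Read-out from a cell viability assay, IC50 reflecting suppression of K052 cell growth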
# Description: SANGER: Inhibition of human K052 cell growth in a cell viability assay.
# [13] = system: NCI-H64; assay: cells; assay type: functional, cell-based, Homo sapiens;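 also: growth inhibition of NCI-H64 cells, read out with a cell viability assay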
# Description: SANGER: Inhibition of human NCI-H64 cell growth in a cell viability assay.
# [14] = system: NCI-H2141; assay: cells; assay type: functional, cell-based, Homo sapiens;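 also: growth inhibition of human NCI-H2141 cells, read out with a cell viability assay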
# Description: SANGER: Inhibition of human NCI-H2141 cell growth in a cell viability assay.
# [15] = system: Kasumi 1; assay: cells; assay type: functional, cell-based, Homo sapiens;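 also: growth inhibition of human Kasumi-1 cells, read out by a cell viability assay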
# Description: SANGER: Inhibition of human KASUMI-1 cell growth in a cell viability assay.
# [16] = system: CHP-126; assay: cells; assay type: functional, cell-based, Homo sapiens
# Description: SANGER: Inhibition of human CHP-126 cell growth in a cell viability assay.
# [17] = system: PF-382; assay: cells; assay type: functional, cell-based, Homo sapiens
# Description: SANGER: Inhibition of human PF-382 cell growth in a cell viability assay.
# [18] = system: MC-IXC; assay: cells; assay type: functional, cell-based; conditions: Homo sapiens;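 also: growth inhibition of MC-IXC cells, read out with a cell viability assay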
# Description: SANGER: Inhibition of human MC-IXC cell growth in a cell viability assay.
# [19] = system: NCI-H522; assay: cells; assay type: functional, cell-based; conditions: Homo sapiens;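 also: cell viability assay measuring growth inhibition of human NCI-H522 cells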
# Description: SANGER: Inhibition of human NCI-H522 cell growth in a cell viability assay.
# [20] = system: GP5d; assay: cells; assay type: functional, cell-based; conditions: Homo sapiens;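 also: growth inhibition of human GP5d cells, read out with a cell viability assay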
# Description: SANGER: Inhibition of human GP5d cell growth in a cell viability assay.
# [21] = system: Ca-Ski; assay: cells; assay type: functional, cell-based; conditions: Homo sapiens;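 also: cell viability assay measuring inhibition of Ca-Ski cell growth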
# Description: SANGER: Inhibition of human Ca-Ski cell growth in a cell viability assay.
# [22] = system: M059J; assay: cells; assay type: functional, cell-based; conditions: Homo sapiens;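 also: growth inhibition of M059J cells, read out with a cell viability assay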
# Description: SANGER: Inhibition of human M059J cell growth in a cell viability assay.
# [23] = system: FTC-133; assay: cells; assay type: functional, cell-based; conditions: Homo sapiens
# [24] = system: HO-1-N-1; assay: cells; assay type: functional, cell-based; conditions: Homo sapiens;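 also: growth inhibition of human HO-1-N-1 cells, read out with a cell viability assay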
# Description: SANGER: Inhibition of human HO-1-N-1 cell growth in a cell viability assay.
# [25] = system: CAL-120; assay: cells; assay type: functional, cell-based; conditions: Homo sapiens;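 also: cell growth inhibition, read out as cell viability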
# Description: SANGER: Inhibition of human CAL-120 cell growth in a cell viability assay.
# [26] = system: DOK; assay: cells; assay type: functional, cell-based; conditions: Homo sapiens;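 also: cell viability assay read-out, values reflect inhibition of cell growth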
# Description: SANGER: Inhibition of human DOK cell growth in a cell viability assay.
# [27] = system: HCC1395; assay: cells; assay type: functional, cell-based; conditions: Homo sapiens;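 also: growth inhibition of HCC1395 cells, read out by a cell viability assay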
# Description: SANGER: Inhibition of human HCC1395 cell growth in a cell viability assay.
# [28] = system: NCI-H596; assay: cells; assay type: functional, cell-based; conditions: Homo sapiens;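 also: growth inhibition of NCI-H596 cells, read out with a cell viability assay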
# Description: SANGER: Inhibition of human NCI-H596 cell growth in a cell viability assay.
# [29] = system: LK-2; assay: cells; assay type: functional, cell-based; conditions: Homo sapiens;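 also: growth inhibition of LK-2 cells, read out with a viability assay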
# Description: SANGER: Inhibition of human LK-2 cell growth in a cell viability assay.
# [30] = system: TYK-nu; assay: cells; assay type: functional, cell-based; conditions: Homo sapiens;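 also: growth inhibition of human TYK-nu cells, read out by a cell viability assay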
# Description: SANGER: Inhibition of human TYK-nu cell growth in a cell viability assay.
# [31] = system: J82; assay: cells; assay type: functional, cell-based; conditions: Homo sapiens;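 also: growth inhibition of J82 cells, read out with a cell viability assay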
# Description: SANGER: Inhibition of human J82 cell growth in a cell viability assay.
# [32] = system: RERF-LC-MS; assay: cells; assay type: functional, cell-based; conditions: Homo sapiens;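 also: growth inhibition of human RERF-LC-MS cells, read out by a cell viability assay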
# Description: SANGER: Inhibition of human RERF-LC-MS cell growth in a cell viability assay.
# [33] = system: HT55; assay: cells; assay type: functional, cell-based; conditions: Homo sapiens;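 also: cell viability readout measuring growth inhibition of human HT55 cells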
# Description: SANGER: Inhibition of human HT55 cell growth in a cell viability assay.
# [34] = system: EGI-1; assay: cells; assay type: functional, cell-based; conditions: Homo sapiens;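 also: cell viability readout used to gauge growth inhibition of EGI-1 cells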
# Description: SANGER: Inhibition of human EGI-1 cell growth in a cell viability assay.
# [35] = system: RCM-1; assay: cells; assay type: functional, cell-based; conditions: Homo sapiens;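 also: growth inhibition of the RCM-1 line, determined with a cell viability readout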
# Description: SANGER: Inhibition of human RCM-1 cell growth in a cell viability assay.
# [36] = system: MG-63; assay: cells; assay type: functional, cell-based; conditions: Homo sapiens;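 also: growth inhibition of human MG-63 cells, read out with a cell viability assay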
# Description: SANGER: Inhibition of human MG-63 cell growth in a cell viability assay.
# [37] = system: MEL-HO; assay: cells; assay type: functional, cell-based; conditions: Homo sapiens
# Description: SANGER: Inhibition of human MEL-HO cell growth in a cell viability assay.
# [38] = system: IGR-1; assay: cells; assay type: functional, cell-based; conditions: Homo sapiens;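 also: growth inhibition of human IGR-1 cells, read out with a cell viability assay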
# Description: SANGER: Inhibition of human IGR-1 cell growth in a cell viability assay.
# [39] = system: MDA-MB-361; assay: cells; assay type: functional, cell-based; conditions: Homo sapiens
# [40] = system: HCC70; assay: cells; assay type: functional, cell-based; conditions: Homo sapiens;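 also: cell viability assay measuring how strongly the compound suppresses proliferation of HCC70 cells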
# Description: SANGER: Inhibition of human HCC70 cell growth in a cell viability assay.
# [41] = system: SK-OV-3; assay: cells; assay type: functional, cell-based; conditions: Homo sapiens;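 also: growth inhibition of SK-OV-3 human cells, read out with a cell viability assay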
# Description: SANGER: Inhibition of human SK-OV-3 cell growth in a cell viability assay.
# [42] = system: YKG-1; assay: cells; assay type: functional, cell-based; conditions: Homo sapiens;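 also: cell growth inhibition, read out with a viability assay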
# Description: SANGER: Inhibition of human YKG-1 cell growth in a cell viability assay.
# [43] = system: P12-Ichikawa; assay: cells; assay type: functional, cell-based; conditions: Homo sapiens
# [44] = system: FaDu; assay: cells; assay type: functional, cell-based; conditions: Homo sapiens;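 also: cell viability readout of growth inhibition in FaDu cells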
# Description: SANGER: Inhibition of human FADU cell growth in a cell viability assay.
# [45] = system: SCC-9; assay: cells; assay type: functional, cell-based; conditions: Homo sapiens;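 also: Read-out is a cell viability assay, with values giving inhibition of cell growth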
# Description: SANGER: Inhibition of human SCC-9 cell growth in a cell viability assay.
# [46] = system: KYSE-150 cell line; assay: cells; assay type: functional, cell-based; conditions: Homo sapiens;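 also: growth inhibition of human KYSE-150 cells, read out with a cell viability assay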
# Description: SANGER: Inhibition of human KYSE-150 cell growth in a cell viability assay.
# [47] = system: KYSE-140; assay: cells; assay type: functional, cell-based; conditions: Homo sapiens;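 also: cell viability assay measuring growth inhibition in human KYSE-140 cells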
# Description: SANGER: Inhibition of human KYSE-140 cell growth in a cell viability assay.
# [48] = system: KYSE-510; assay: cells; assay type: functional, cell-based; conditions: Homo sapiens;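 also: cell viability readout used to measure how strongly growth of the cell line is suppressed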
# Description: SANGER: Inhibition of human KYSE-510 cell growth in a cell viability assay.
# [49] = system: BXPC-3; assay: cells; assay type: functional, cell-based; conditions: Homo sapiens;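 also: growth inhibition of human BxPC-3 cells, read out by a cell viability assay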
# Description: SANGER: Inhibition of human BxPC-3 cell growth in a cell viability assay.
# [50] = system: CAL-33; assay: cells; assay type: functional, cell-based; conditions: Homo sapiens;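 also: growth inhibition of CAL-33 cells, read out with a cell viability assay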
# Description: SANGER: Inhibition of human CAL-33 cell growth in a cell viability assay.
# [51] = system: G-401; assay: cells; assay type: functional, cell-based; conditions: Homo sapiens
# Description: SANGER: Inhibition of human G-401 cell growth in a cell viability assay.
# [52] = system: RPMI-2650; assay: cells; assay type: functional, cell-based; conditions: Homo sapiens
# Description: SANGER: Inhibition of human RPMI-2650 cell growth in a cell viability assay.
# [53] = system: A2780; assay: cells; assay type: functional, cell-based; conditions: Homo sapiens;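 also: growth inhibition of A2780 cells, read out with a cell viability assay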
# Description: SANGER: Inhibition of human A2780 cell growth in a cell viability assay.
# [54] = system: HPAF-II; assay: cells; assay type: functional, cell-based; conditions: Homo sapiens;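 also: growth inhibition of HPAF-II cells, read out with a cell viability assay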
# Description: SANGER: Inhibition of human HPAF-II cell growth in a cell viability assay.
# [55] = system: Hs-578T; assay: cells; assay type: functional, cell-based; conditions: Homo sapiens
# Description: SANGER: Inhibition of human Hs-578-T cell growth in a cell viability assay.
# [56] = system: MDA-MB-453; assay: cells; assay type: functional, cell-based; conditions: Homo sapiens
# Description: SANGER: Inhibition of human MDA-MB-453 cell growth in a cell viability assay.
# [57] = system: NCI-H441; assay: cells; assay type: functional, cell-based; conditions: Homo sapiens;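 also: growth inhibition of NCI-H441 cells, read out with a cell viability assay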
# Description: SANGER: Inhibition of human NCI-H441 cell growth in a cell viability assay.
# [58] = system: CAPAN-1; assay: cells; assay type: functional, cell-based; conditions: Homo sapiens;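 also: growth suppression of CAPAN-1 cells, read out by a cell viability assay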
# Description: SANGER: Inhibition of human CAPAN-1 cell growth in a cell viability assay.
# [59] = system: NCI-H1437; assay: cells; assay type: functional, cell-based; conditions: Homo sapiens;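 also: growth inhibition of human NCI-H1437 cells, read out by a cell viability assay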
# Description: SANGER: Inhibition of human NCI-H1437 cell growth in a cell viability assay.
structure (smiles),measurement,setting,value
C[C@@H](Oc1cc(-c2cnn(C3CCNCC3)c2)cnc1N)c1c(Cl)ccc(F)c1Cl [CRIZOTINIB],IC50,"[1]; Homo sapiens, SCLC-21H",> 2 µM
same,IC50,"[2]; Homo sapiens, D-336MG",> 2 µM
same,IC50,"[3]; Homo sapiens, BC1",> 2 µM
same,IC50,"[4]; Homo sapiens, SR",0.126 µM
same,IC50,"[5]; Homo sapiens, NCI-H2171",> 2 µM
same,IC50,"[6]; Homo sapiens, OPM-2",> 2 µM
same,IC50,"[7]; Homo sapiens, NCI-H1436",> 2 µM
same,IC50,"[8]; Homo sapiens, EB-3",> 2 µM
same,IC50,"[9]; Homo sapiens, LOUCY",> 2 µM
same,IC50,"[10]; Homo sapiens, HC-1",> 2 µM
same,IC50,"[11]; Homo sapiens, NCI-H1963",> 2 µM
same,IC50,"[12]; Homo sapiens, K052",> 2 µM
same,IC50,"[13]; Homo sapiens, NCI-H64",> 2 µM
same,IC50,"[14]; Homo sapiens, NCI-H2141",> 2 µM
same,IC50,"[15]; Homo sapiens, Kasumi 1",> 2 µM
same,IC50,"[16]; Homo sapiens, CHP-126",> 2 µM
same,IC50,"[17]; Homo sapiens, PF-382",> 2 µM
C=CC(=O)N1CCCC(Nc2nc(Nc3ccc(N(C)C(=O)CC)cc3)nc3[nH]cnc23)C1 (stereo not given),IC50,"[1]; Homo sapiens, SCLC-21H",> 10.2 µM
same,IC50,"[2]; Homo sapiens, D-336MG",8 µM
same,IC50,"[3]; Homo sapiens, BC1",> 10.2 µM
same,IC50,"[4]; Homo sapiens, SR",> 10.2 µM
same,IC50,"[5]; Homo sapiens, NCI-H2171",> 10.2 µM
same,IC50,"[6]; Homo sapiens, OPM-2",> 10.2 µM
same,IC50,"[7]; Homo sapiens, NCI-H1436",> 10.2 µM
same,IC50,"[8]; Homo sapiens, EB-3",> 10.2 µM
same,IC50,"[9]; Homo sapiens, LOUCY",> 10.2 µM
same,IC50,"[10]; Homo sapiens, HC-1",> 10.2 µM
same,IC50,"[11]; Homo sapiens, NCI-H1963",> 10.2 µM
same,IC50,"[12]; Homo sapiens, K052",> 10.2 µM
same,IC50,"[13]; Homo sapiens, NCI-H64",> 10.2 µM
same,IC50,"[14]; Homo sapiens, NCI-H2141",> 10.2 µM
same,IC50,"[15]; Homo sapiens, Kasumi 1",> 10.2 µM
same,IC50,"[16]; Homo sapiens, CHP-126",> 10.2 µM
same,IC50,"[17]; Homo sapiens, PF-382",> 10.2 µM
O=C(NCCCNc1nc(Nc2cccc(NC(=O)N3CCCC3)c2)ncc1I)c1cccs1 [BX-795],IC50,"[2]; Homo sapiens, D-336MG",4.3 µM
same,IC50,[18],2.9 µM
same,IC50,[19],> 5 µM
same,IC50,[20],> 5 µM
same,IC50,[21],> 5 µM
same,IC50,[22],1.38 µM
same,IC50,[23],3.02 µM
same,IC50,[24],1.97 µM
same,IC50,[25],3.89 µM
same,IC50,[26],4.36 µM
same,IC50,[27],> 5 µM
same,IC50,[28],> 5 µM
same,IC50,[29],> 5 µM
same,IC50,[30],2.93 µM
same,IC50,[31],> 5 µM
same,IC50,[32],> 5 µM
same,IC50,[33],> 5 µM
same,IC50,[34],> 5 µM
same,IC50,[35],> 5 µM
same,IC50,[36],1.69 µM
same,IC50,[37],> 5 µM
same,IC50,[38],> 5 µM
same,IC50,[39],> 5 µM
same,IC50,[40],> 5 µM
same,IC50,[41],> 5 µM
same,IC50,[42],1.77 µM
same,IC50,[43],1.18 µM
same,IC50,[44],> 5 µM
same,IC50,[45],> 5 µM
same,IC50,[46],2.73 µM
same,IC50,[47],3.72 µM
same,IC50,[48],4.96 µM
same,IC50,[49],> 5 µM
same,IC50,[50],> 5 µM
same,IC50,[51],2.56 µM
same,IC50,[52],> 5 µM
same,IC50,[53],> 5 µM
same,IC50,[54],> 5 µM
same,IC50,[55],2.42 µM
same,IC50,[56],> 5 µM
same,IC50,[57],> 5 µM
same,IC50,[58],> 5 µM
same,IC50,[59],2.77 µM
COc1ccc(N(C(=O)Oc2c(C)cccc2C)c2ccnc(Nc3ccc(N4CCN(C)CC4)cc3)n2)c(OC)c1,IC50,"[1]; Homo sapiens, SCLC-21H",> 5.12 µM
same,IC50,"[2]; Homo sapiens, D-336MG",0.0468 µM
same,IC50,"[3]; Homo sapiens, BC1",> 5.12 µM
same,IC50,"[4]; Homo sapiens, SR",> 5.12 µM
same,IC50,"[5]; Homo sapiens, NCI-H2171",> 5.12 µM
same,IC50,"[6]; Homo sapiens, OPM-2",> 5.12 µM
same,IC50,"[7]; Homo sapiens, NCI-H1436",> 5.12 µM
same,IC50,"[8]; Homo sapiens, EB-3",2.16 µM
same,IC50,"[9]; Homo sapiens, LOUCY",> 5.12 µM
same,IC50,"[10]; Homo sapiens, HC-1",> 5.12 µM
same,IC50,"[11]; Homo sapiens, NCI-H1963",> 5.12 µM
same,IC50,"[12]; Homo sapiens, K052",> 5.12 µM
same,IC50,"[13]; Homo sapiens, NCI-H64",> 5.12 µM
same,IC50,"[14]; Homo sapiens, NCI-H2141",> 5.12 µM
same,IC50,"[15]; Homo sapiens, Kasumi 1",> 5.12 µM
same,IC50,"[16]; Homo sapiens, CHP-126",> 5.12 µM
same,IC50,"[17]; Homo sapiens, PF-382",0.708 µM
CC(C)C[C@@H](C=O)NC(=O)[C@H](CC(C)C)NC(=O)[C@H](CC(C)C)NC(=O)OCc1ccccc1 [MG-132] (Cbz-Leu-Leu-Leu-aldehyde),IC50,[1]; sclc-21h,> 1 µM
same,IC50,[2]; d-336mg,> 1 µM
same,IC50,"[3]; Homo sapiens, BC1",> 1 µM
same,IC50,[3]; bc1,> 1 µM
same,IC50,[4]; sr,> 1 µM
same,IC50,[5]; nci-h2171,> 1 µM
same,IC50,[6]; opm-2,0.105 µM and 0.758 µM
same,IC50,"[7]; Homo sapiens, NCI-H1436",> 1 µM
same,IC50,[7]; nci-h1436,> 1 µM
same,IC50,[8]; eb-3,> 1 µM
same,IC50,[9]; loucy,0.255 µM and > 1 µM
same,IC50,[10]; hc-1,> 1 µM
same,IC50,"[11]; Homo sapiens, NCI-H1963",> 1 µM
same,IC50,[11]; nci-h1963,> 1 µM
same,IC50,[12]; k052,0.29 µM and > 1 µM
same,IC50,[13]; nci-h64,> 1 µM
same,IC50,[14]; nci-h2141,> 1 µM
same,IC50,"[15]; Homo sapiens, Kasumi 1",> 1 µM
same,IC50,[15]; kasumi 1,> 1 µM
same,IC50,[16]; chp-126,> 1 µM
same,IC50,[17]; pf-382,0.167 µM and 0.584 µM
